Source: US20260345619A1 (Principia Biopharma Inc., priority 2023, published 2026)

Columns and labels:
[1] = healthy volunteers; cited from earlier work
[2] = Safety: adverse events (TEAEs, SAEs, AESIs), vital signs, labs; type: in vivo, human; details: for Participants with any TEAE / Participants with any TEAE leading to death / Participants with any TEAE related to IMP / Participants with any severe TEAE / Participants with any treatment emergent AESI / Participants with any treatment emergent SAE: safety population
From the text: In terms of safety, […], adverse events of special interest (AESIs), vital signs, and laboratory analyses were to be reported.
Safety assessments included physical examinations, measurements of vital signs, electrocardiograms, clinical safety laboratory assessments, and pregnancy testing.
An AE is any untoward medical occurrence in a patient or clinical study participant, temporally associated with the use of study intervention, whether or not considered related to the study intervention.
An adverse event of special interest (AESI) is an AE (serious or nonserious) of scientific and medical concern specific to the Sponsor's product or program, for which ongoing monitoring and immediate notification by the Investigator to the Sponsor was required. Such events may have required further investigation in order to characterize and understand them. Adverse events of special interest may have been added, modified or removed during a study by protocol amendment. AESIs include the following: • Pregnancy of a participant entered in a study as well as pregnancy occurring in a female partner of a participant entered in a study with IMP. • Symptomatic overdose (serious or nonserious) with IMP. • Other project-specific AESI(s), including: severe infections including opportunistic infections; tuberculosis or initiation of medications for suspected tuberculosis; active COVID-19 infection as documented by a positive COVID-19 molecular test; major hemorrhagic events, including symptomatic bleeding in a critical area or organ such as the CNS, or intraocular bleeding, resulting in an SAE; serious adverse events (or non-serious adverse events with a severity level consistent with Grade 3 CTCAE of cytopenia; and atrial fibrillation.
The safety variables, including AEs, vital signs, physical examination, and laboratory values were to be summarized using descriptive statistics in each treatment group in the safety population.
All safety analyses were to be performed on the safety population. The baseline value is defined generally as the last available value before the first dose of IMP.
In general, AEs were to be analyzed in the following 3 categories: • Pre-treatment AEs: AEs that developed, worsened, or became serious during the pre-treatment period. • TEAEs: AEs that developed, worsened, or became serious during the treatment-emergent period. • Post-treatment AEs: AEs that developed, worsened, or became serious during the post-treatment period.

[3] = healthy volunteers (N=51), even at supratherapeutic doses; cited from earlier work
[4] = Participant disposition: completion, discontinuation and reasons; type: in vivo, human
From the text: Participants that met the criteria for a LOAC, at any time during the randomized IMP treatment phase, were to (be): • Discontinue early from IMP treatment, • Evaluated and receive treatment by the Investigator with standard of care according to standard medical practice. If practicable and safe, the participant was to undergo EOT Visit (Visit 14) assessment prior to the administration of rescue medications. • Resume their individual prescreening ICS/LABA background therapy and, • Followed for safety during a 4-week Post IMP Treatment Period.
Participants who discontinued IMP treatment prior to completing the 12-week IMP treatment (due to LOAC or due to early treatment discontinuation), were to be evaluated as soon as possible at the individual participant's EOT Visit and using procedures as planned for the EOT Visit at Week 12 (Visit 14). At their EOT visit, participants were to resume their prescreening ICS/LABA background therapy or appropriate therapy as needed per treating physician were to be resumed after the EOT study assessments had been performed and entered the 4-week safety follow-up period/Post IMP Treatment Period, concluding with the EOS Visit (Visit 16).

[5] = read-out: IC50 for RLK; cited from earlier work
[6] = test system: bone marrow tyrosine kinase on chromosome X (BMX); details: cited from earlier work
platelet aggregation = details: healthy volunteers or patients with ITP; cited from earlier work
[7] = test system: 251 kinases sharing a common cysteine in their active site; details: cited from earlier work

CC(C)(C=C(C#N)C(=O)N1CCC[C@@H](n2nc(-c3ccc(Oc4ccccc4)cc3F)c3c(N)ncnc32)C1)N1CCN(C2COC2)CC1 (mixture of isomers) [rilzabrutinib, (R)-2-[3-[4-amino-3-(2-fluoro-4-phenoxy-phenyl)pyrazolo[3,4-d]pyrimidin-1-yl]piperidine-1-carbonyl]-4-methyl-4-[4-(oxetan-3-yl)piperazin-1-yl]pent-2-enenitrile]
discontinuation due to an adverse event [1]: no participants discontinued treatment due to an adverse event
most commonly reported adverse events [1]: gastrointestinal adverse events, including nausea/vomiting and diarrhea
serious adverse events or deaths [1]: No serious adverse events or deaths were reported
overall safety ([2]; 400 mg BID and TID, asthma): generally safe, with no evidence of new safety concerns
Participants with any TEAE ([2]; 400 mg BID, N = 32): 14 (43.8) n (%)
Participants with any TEAE leading to death ([2]; 400 mg BID, N = 32): 0 n (%)
Participants with any TEAE related to IMP ([2]; 400 mg BID, N = 32): 5 (15.6) n (%)
Participants with any severe TEAE ([2]; 400 mg BID, N = 32): 0 n (%)
Participants with any treatment emergent AESI ([2]; 400 mg BID, N = 32): 1 (3.1) n (%)
Participants with any treatment emergent SAE ([2]; 400 mg BID, N = 32): 2 (6.3) n (%)
Participants with any TEAE ([2]; 400 mg TID, N = 64): 26 (40.6) n (%)
Participants with any TEAE leading to death ([2]; 400 mg TID, N = 64): 0 n (%)
Participants with any TEAE related to IMP ([2]; 400 mg TID, N = 64): 10 (15.6) n (%)
Participants with any severe TEAE ([2]; 400 mg TID, N = 64): 1 (1.6) n (%)
Participants with any treatment emergent AESI ([2]; 400 mg TID, N = 64): 3 (4.7) n (%)
Participants with any treatment emergent SAE ([2]; 400 mg TID, N = 64): 0 n (%)
Participants with any TEAE ([2]; combined BID and TID, N = 96): 40 (41.7) n (%)
Participants with any TEAE leading to death ([2]; combined BID and TID, N = 96): 0 n (%)
Participants with any TEAE related to IMP ([2]; combined BID and TID, N = 96): 15 (15.6) n (%)
Participants with any severe TEAE ([2]; combined BID and TID, N = 96): 1 (1.0) n (%)
Participants with any treatment emergent AESI ([2]; combined BID and TID, N = 96): 4 (4.2) n (%)
Participants with any treatment emergent SAE ([2]; combined BID and TID, N = 96): 2 (2.1) n (%)
effect on cardiac repolarization [3]: does not exert clinically relevant effects on cardiac repolarization
Status at last contact: Dead ([4]; 400 mg BID (N = 32)): 0 n (%)
permanent study intervention discontinuation: Adverse event ([4]; 400 mg BID (N = 32)): 2 (6.3) n (%)
permanent study intervention discontinuation: Adverse event not related to COVID-19 ([4]; 400 mg BID (N = 32)): 2 (6.3) n (%)
permanent study intervention discontinuation: Adverse event related to COVID-19 ([4]; 400 mg BID (N = 32)): 0 n (%)
permanent study intervention discontinuation: Lack of efficacy ([4]; 400 mg BID (N = 32)): 0 n (%)
permanent study intervention discontinuation: Loss of asthma control (LOAC) ([4]; 400 mg BID (N = 32)): 8 (25.0) n (%)
study discontinuation: Adverse event ([4]; 400 mg BID (N = 32)): 1 (3.1) n (%)
study intervention withdrawal by subject: Adverse event ([4]; 400 mg BID (N = 32)): 1 (3.1) n (%)
Status at last contact: Dead ([4]; 400 mg TID (N = 64)): 0 n (%)
permanent study intervention discontinuation: Adverse event ([4]; 400 mg TID (N = 64)): 5 (7.8) n (%)
permanent study intervention discontinuation: Adverse event not related to COVID-19 ([4]; 400 mg TID (N = 64)): 2 (3.1) n (%)
permanent study intervention discontinuation: Adverse event related to COVID-19 ([4]; 400 mg TID (N = 64)): 3 (4.7) n (%)
permanent study intervention discontinuation: Lack of efficacy ([4]; 400 mg TID (N = 64)): 1 (1.6) n (%)
permanent study intervention discontinuation: Loss of asthma control (LOAC) ([4]; 400 mg TID (N = 64)): 10 (15.6) n (%)
study discontinuation: Adverse event ([4]; 400 mg TID (N = 64)): 0 n (%)
study intervention withdrawal by subject: Adverse event ([4]; 400 mg TID (N = 64)): 2 (3.1) n (%)
IC50 [5]: 1.2 nM
IC50 [6]: 1 nM
bleeding problems (platelet aggregation): does not lead to bleeding problems
number of kinases inhibited (>90% inhibition) ([7]; 1 μM, panel of 251 kinases): 6 kinases
cross-reactivity with other molecules ([7]; in comparison to first and second generation BTKi): minimal cross-reactivity
